According to patent US20160009693A1, “HERBICIDAL COMPOUNDS” (SYNGENTA LIMITED, priority 2013, published 2016):

What was measured:
Type in all cases: in vivo
Settings in all cases: evaluated after 13 days
[1] = test system: Echinochloa crus-galli (ECHCG); assay: Herbicidal glasshouse test, post-emergence, ECHCG
Protocol: (§1) Seeds of a variety of test species are sown in standard soil in pots (Alopecurus myosuroides (ALOMY), Setaria faberi (SETFA), Echinochloa crus-galli (ECHCG), Solanum nigrum (SOLNI), Amaranthus retoflexus (AMARE), Ipomoea hederacea (IPOHE)). After cultivation for one day (pre-emergence) or after 8 days cultivation (post-emergence) under controlled conditions in a glasshouse (at 24/16° C., day/night; 14 hours light; 65% humidity), the plants are sprayed with an aqueous spray solution derived from the formulation of the technical active ingredient in acetone / water (50:50) solution containing 0.5% Tween 20 (polyoxyethelyene sorbitan monolaurate, CAS RN 9005-64-5). […] The test plants are then grown in a glasshouse under controlled conditions in a glasshouse (at 24/16° C., day/night; 14 hours light; 65% humidity) and watered twice daily. After 13 days for pre and post-emergence, the test is evaluated for the percentage damage caused to the plant. The biological activities are shown in the following table on a five point scale (5=80-100%; 4=60-79%; 3=40-59%; 2=20-39%; 1=0-19%).

[2] = test system: Ipomoea hederacea (IPOHE); assay: Herbicidal glasshouse test, post-emergence, IPOHE
Protocol: as §1

[3] = test system: Solanum nigrum (SOLNI); assay: Herbicidal glasshouse test, post-emergence, SOLNI
Protocol: as §1

[4] = test system: Solanum nigrum (SOLNI); assay: Herbicidal glasshouse test, pre-emergence, SOLNI
Protocol: as §1

[5] = test system: Ipomoea hederacea (IPOHE); assay: Herbicidal glasshouse test, pre-emergence, IPOHE
Protocol: as §1

[6] = test system: Amaranthus retoflexus (AMARE); assay: Herbicidal glasshouse test, pre-emergence, AMARE
Protocol: as §1

[7] = test system: Alopecurus myosuroides (ALOMY); assay: Herbicidal glasshouse test, pre-emergence, ALOMY
Protocol: as §1

[8] = test system: Setaria faberi (SETFA); assay: Herbicidal glasshouse test, post-emergence, SETFA
Protocol: as §1

[9] = test system: Amaranthus retoflexus (AMARE); assay: Herbicidal glasshouse test, post-emergence, AMARE
Protocol: as §1

[10] = test system: Alopecurus myosuroides (ALOMY); assay: Herbicidal glasshouse test, post-emergence, ALOMY
Protocol: as §1

[11] = test system: Setaria faberi (SETFA); assay: Herbicidal glasshouse test, pre-emergence, SETFA
Protocol: as §1

[12] = test system: Echinochloa crus-galli (ECHCG); assay: Herbicidal glasshouse test, pre-emergence, ECHCG
Protocol: as §1

| Structure (SMILES) | POST Application ECHCG, percentage damage (five point scale) ([1]; applied at 1000 g/h) | POST Application IPOHE, percentage damage (five point scale) ([2]; applied at 1000 g/h) | POST Application SOLNI, percentage damage (five point scale) ([3]; applied at 1000 g/h) | PRE Application SOLNI, percentage damage (five point scale) ([4]; applied at 1000 g/h) | PRE Application IPOHE, percentage damage (five point scale) ([5]; applied at 1000 g/h) | PRE Application AMARE, percentage damage (five point scale) ([6]; applied at 1000 g/h) | PRE Application ALOMY, percentage damage (five point scale) ([7]; applied at 1000 g/h) | POST Application SETFA, percentage damage (five point scale) ([8]; applied at 1000 g/h) | POST Application AMARE, percentage damage (five point scale) ([9]; applied at 1000 g/h) | POST Application ALOMY, percentage damage (five point scale) ([10]; applied at 1000 g/h) | PRE Application SETFA, percentage damage (five point scale) ([11]; applied at 1000 g/h) | PRE Application ECHCG, percentage damage (five point scale) ([12]; applied at 1000 g/h) | other results |
| --- | --- | --- | --- | --- | --- | --- | --- | --- | --- | --- | --- | --- | --- |
| Cn1nnnc1NC(=O)c1nn(C)c(=O)n(-c2ccc(Cl)c(C#N)c2)c1=O [Compound 1.047] | – | – | – | – | – | – | – | – | – | – | – | – | POST Application ECHCG, percentage damage (five point scale) ([1]; applied at 250 g/ha): 3 (3=40-59%); POST Application IPOHE, percentage damage (five point scale) ([2]; applied at 250 g/ha): 4 (4=60-79%); POST Application SOLNI, percentage damage (five point scale) ([3]; applied at 250 g/ha): 5 (5=80-100%); PRE Application SOLNI, percentage damage (five point scale) ([4]; applied at 250 g/ha): 5 (5=80-100%); PRE Application IPOHE, percentage damage (five point scale) ([5]; applied at 250 g/ha): 5 (5=80-100%); PRE Application AMARE, percentage damage (five point scale) ([6]; applied at 250 g/ha): 5 (5=80-100%); PRE Application ALOMY, percentage damage (five point scale) ([7]; applied at 250 g/ha): 1 (1=0-19%); POST Application SETFA, percentage damage (five point scale) ([8]; applied at 250 g/ha): 1 (1=0-19%); POST Application AMARE, percentage damage (five point scale) ([9]; applied at 250 g/ha): 5 (5=80-100%); POST Application ALOMY, percentage damage (five point scale) ([10]; applied at 250 g/ha): 3 (3=40-59%); PRE Application SETFA, percentage damage (five point scale) ([11]; applied at 250 g/ha): 1 (1=0-19%); PRE Application ECHCG, percentage damage (five point scale) ([12]; applied at 250 g/ha): 3 (3=40-59%) |
| CC(C)CCn1c(=O)c(C(=O)Nc2nnnn2C)nn(C)c1=O [Compound 1.087] | 5 (5=80-100%) | 5 (5=80-100%) | 5 (5=80-100%) | 5 (5=80-100%) | 5 (5=80-100%) | 5 (5=80-100%) | 5 (5=80-100%) | 5 (5=80-100%) | 5 (5=80-100%) | 5 (5=80-100%) | 5 (5=80-100%) | 5 (5=80-100%) | – |
| Cn1nnnc1NC(=O)c1nn(C)c(=O)n(Cc2ccc(F)cc2F)c1=O [Compound 1.055] | 4 (4=60-79%) | 5 (5=80-100%) | 5 (5=80-100%) | 5 (5=80-100%) | 5 (5=80-100%) | 5 (5=80-100%) | 5 (5=80-100%) | 1 (1=0-19%) | 5 (5=80-100%) | 5 (5=80-100%) | 1 (1=0-19%) | 5 (5=80-100%) | – |
| Cn1nnnc1NC(=O)c1nn(C)c(=O)n(Cc2ccc(C(F)F)cc2)c1=O [Compound 1.086] | 5 (5=80-100%) | 5 (5=80-100%) | 5 (5=80-100%) | 5 (5=80-100%) | 5 (5=80-100%) | 5 (5=80-100%) | 5 (5=80-100%) | 2 (2=20-39%) | 5 (5=80-100%) | 5 (5=80-100%) | 2 (2=20-39%) | 5 (5=80-100%) | – |
| Cc1ccc(-n2c(=O)c(C(=O)Nc3nnnn3C)nn(C)c2=O)cc1C [Compound 1.026] | 5 (5=80-100%) | 5 (5=80-100%) | 5 (5=80-100%) | 5 (5=80-100%) | 5 (5=80-100%) | 5 (5=80-100%) | 5 (5=80-100%) | 5 (5=80-100%) | 5 (5=80-100%) | 5 (5=80-100%) | 5 (5=80-100%) | 5 (5=80-100%) | – |
| Cn1nnnc1NC(=O)c1nn(C)c(=O)n(Cc2ccc(SC(F)(F)F)cc2)c1=O [Compound 1.080] | 4 (4=60-79%) | 5 (5=80-100%) | 5 (5=80-100%) | 5 (5=80-100%) | 5 (5=80-100%) | 5 (5=80-100%) | 5 (5=80-100%) | 5 (5=80-100%) | 5 (5=80-100%) | 5 (5=80-100%) | 5 (5=80-100%) | 5 (5=80-100%) | – |
| CCCCn1c(=O)c(C(=O)Nc2nnnn2C)cn(C)c1=O [Compound 4.004] | 1 (1=0-19%) | 4 (4=60-79%) | 5 (5=80-100%) | 2 (2=20-39%) | 2 (2=20-39%) | 5 (5=80-100%) | 1 (1=0-19%) | 1 (1=0-19%) | 5 (5=80-100%) | 1 (1=0-19%) | 1 (1=0-19%) | 1 (1=0-19%) | – |
| C=CCn1nc(C(=O)Nc2nnnn2C)c(=O)n(-c2ccc(F)cc2)c1=O [Compound 1.011] | 5 (5=80-100%) | 5 (5=80-100%) | 5 (5=80-100%) | 5 (5=80-100%) | 5 (5=80-100%) | 5 (5=80-100%) | 4 (4=60-79%) | 5 (5=80-100%) | 5 (5=80-100%) | 5 (5=80-100%) | 4 (4=60-79%) | 5 (5=80-100%) | – |
| Cn1nnnc1NC(=O)c1nn(C)c(=O)n(CC2CCOCC2)c1=O [Compound 1.095] | 5 (5=80-100%) | 5 (5=80-100%) | 5 (5=80-100%) | 5 (5=80-100%) | 5 (5=80-100%) | 5 (5=80-100%) | 5 (5=80-100%) | 5 (5=80-100%) | 5 (5=80-100%) | 5 (5=80-100%) | 5 (5=80-100%) | 5 (5=80-100%) | – |
| COCCn1c(=O)c(C(=O)Nc2nnnn2C)nn(C)c1=O [Compound 1.088] | 5 (5=80-100%) | 5 (5=80-100%) | 5 (5=80-100%) | 5 (5=80-100%) | 5 (5=80-100%) | 5 (5=80-100%) | 5 (5=80-100%) | 5 (5=80-100%) | 5 (5=80-100%) | 5 (5=80-100%) | 5 (5=80-100%) | 5 (5=80-100%) | – |
